The record followed here is patent US9918941B2 (Eastbrand Holding GMBH, priority 2012, dated 2018).

The test system of data set [1] is gastric mucus. Put plainly: Gastric tolerance, Pisanti-Volterra method. Format: in vivo, Sprague Dawley rats. The following applies: rats, score 0 (normal stomach) to 6 (perforated ulcer). The text has this:
The following scores were attributed according to the type and intensity of the injury observed: • Score 0=Normal stomach without injury; 1=Haemorrhaging points; 2=Haemorrhaging diffusion (reddening of the surface); 3=1-5 small ulcers (<3 mm); 4=Large number of small ulcers or a deep isolated ulceration; 5=Many ulcers of various size; 6=Perforated ulcer. • The degree of gastric injury is defined by the average score; the higher score corresponds to a greater gastric injury

Data set [2] relates to acute chemical visceral pain model. Put plainly: Analgesic activity, abdominal contraction test with acetic acid (Writhing Test). The following applies: inhibition of number of contractions vs control animals. It counts as in vivo, Swiss rats. The protocol: Adult male Swiss rats were used in the assay, 28-30 g in weight, 10 animals per treatment group or for each assessed dose level. 1-The analgesic activity/action was assessed by using an acute chemical visceral pain model, the abdominal contraction test with acetic acid (Writhing Test) (Miranda, H; Puig, […]. Synergism between paracetamol and nonsteroidal anti-inflammatory drugs in experimental acute pain. Pain (12) 2006. 22-28) ([…]. The Type of Analgesic-Receptor interaction involved in certain analgesic assays. European Journal of Pharmacology 16 (1971) 63-66. North Holland Publishing Company) […] The antinociceptive activity was expressed as the inhibition percentage of the number of contractions observed in the animals in the groups treated at each of the assessed dose levels, with respect to the number of contractions in the study control animals.

Data set [3] relates to Carrageenin-induced edema in the paw. Briefly: Anti-inflammatory activity, Carrageenin-induced edema in the paw (Winter, Risley and Nuss). It counts as in vivo, Sprague Dawley rats. Particulars: rats, ± e.s.
Data set [4] in a line: Degradation / related substances (USP analytical method). It counts as physicochemical. The following applies: reaction mixture up to 60° C. and gelation, finished microcapsules. An excerpt:
No related substances derived from the degradation of diclofenac mentioned in USP were detected in HPSC.
Only 2% were found above 1000, and only 1% under 250 micron.

Turning to `O=C(O)Cc1ccccc1Nc1c(Cl)cccc1Cl` [diclofenac potassium], the “Degree of Gastric Injury Avg. score ± e.s.” value in data set [1] (Dose: 12.5 mg/kg) is 2.64 ± 0.59; in data set [1] (Dose: 25.0 mg/kg) it was 3.81 ± 0.35. Besides, the “Degree of Gastric Injury Avg Score ± e.s.” value in data set [1] (Dose: 50.0 mg/kg) came to 4.80 ± 0.50. Further, the “Analgesic Activity (% Inhibition) Avg. Score ± e.s.” value in data set [2] (Dose: 12.5 mg/kg) was determined as 53.23 ± 5.53%; in data set [2] (Dose: 25.0 mg/kg) it was 67.26 ± 4.62%. In data set [3] (Dose: 12.5 mg/kg), the “% Inflammation inhibition 1st hour” value was determined as 37.2 ± 12.2%. Besides, the “% Inflammation inhibition 2nd hour” value in data set [3] (Dose: 12.5 mg/kg) worked out at 42.5 ± 13.1%; in data set [3] (Dose: 25.0 mg/kg), 36.4 ± 8.49%; in data set [3] (Dose: 50.0 mg/kg) it was 45.8 ± 8.3%. The “% Inflammation inhibition 3rd hour” value was found to be 28.3 ± 9.5% in data set [3] (Dose: 12.5 mg/kg), 28.0 ± 13.56% in data set [3] (Dose: 25.0 mg/kg) and 41.4 ± 6.9% in data set [3] (Dose: 50.0 mg/kg). In addition, the “% Inflammation inhibition 4th hour” value in data set [3] (Dose: 12.5 mg/kg) is 30.6 ± 9.8%; in data set [3] (Dose: 25.0 mg/kg), 23.3 ± 6.66%; in data set [3] (Dose: 50.0 mg/kg), 47.2 ± 5.2%. Moreover, the “% Inflammation inhibition 5th hour” value in data set [3] (Dose: 12.5 mg/kg) was 29.7 ± 10.8%; in data set [3] (Dose: 25.0 mg/kg) it was 15.7 ± 5.61%; in data set [3] (Dose: 50.0 mg/kg), 43.2 ± 4.5%.

With `O=C(O)Cc1ccccc1Nc1c(Cl)cccc1Cl` [diclofenac, 2-((2,6 dichlorophenyl)amino)phenyl acetic (diclofenac) acid], the “degradation / related substances” value in data set [4] is recorded as “not degraded”.
